From ChEMBL document CHEMBL1141082, “4-Anilino-7,8-dialkoxybenzo[g]quinoline-3-carbonitriles as potent Src kinase inhibitors” (J Med Chem, 2005)

What was measured:
Mus musculus [1] = experiment: Plasma levels in nude mouse after administration at a single dose of 50 mg/kg ip after 4 hours; type: functional; conditions: route intraperitoneal
Mus musculus [2] = experiment: Plasma levels in nude mouse after administration at a single dose of 50 mg/kg ip after 8 hours; type: functional; conditions: route intraperitoneal
Mus musculus [3] = experiment: Plasma levels in nude mouse after administration at a single dose of 50 mg/kg ip after 24 hours; type: functional; conditions: route intraperitoneal
Mus musculus [4] = experiment: Plasma levels in nude mouse after administration at a single dose of 50 mg/kg ip after 0.5 hours; type: functional; conditions: route intraperitoneal
Mus musculus [5] = organism: Mus musculus; conditions: dose 50 mg/kg; route intraperitoneal
[6] = target: Cyclin-dependent kinase 4 (Homo sapiens, UniProt P11802); experiment: Inhibitory concentration against CDK4
Sequence of Cyclin-dependent kinase 4 (P11802 whole entry): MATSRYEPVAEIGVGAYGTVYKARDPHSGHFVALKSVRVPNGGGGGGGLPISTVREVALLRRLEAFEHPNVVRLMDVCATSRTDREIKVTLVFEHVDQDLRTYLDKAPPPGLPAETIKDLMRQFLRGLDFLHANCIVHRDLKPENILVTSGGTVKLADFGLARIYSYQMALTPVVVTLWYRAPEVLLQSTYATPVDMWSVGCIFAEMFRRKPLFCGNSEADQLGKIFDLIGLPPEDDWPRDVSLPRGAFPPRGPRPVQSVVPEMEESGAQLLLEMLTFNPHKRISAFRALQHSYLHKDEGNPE

[7] = target: Serine/threonine-protein kinase AKT (Homo sapiens, UniProt P31751+Q9Y243+P31749); experiment: Inhibitory concentration against AKT; type: protein assay
[8] = target: Receptor tyrosine-protein kinase erbB-2 (Homo sapiens, UniProt P04626); experiment: nhibitory concentrations against ErbB-2
Sequence of Receptor tyrosine-protein kinase erbB-2 (P04626 whole entry): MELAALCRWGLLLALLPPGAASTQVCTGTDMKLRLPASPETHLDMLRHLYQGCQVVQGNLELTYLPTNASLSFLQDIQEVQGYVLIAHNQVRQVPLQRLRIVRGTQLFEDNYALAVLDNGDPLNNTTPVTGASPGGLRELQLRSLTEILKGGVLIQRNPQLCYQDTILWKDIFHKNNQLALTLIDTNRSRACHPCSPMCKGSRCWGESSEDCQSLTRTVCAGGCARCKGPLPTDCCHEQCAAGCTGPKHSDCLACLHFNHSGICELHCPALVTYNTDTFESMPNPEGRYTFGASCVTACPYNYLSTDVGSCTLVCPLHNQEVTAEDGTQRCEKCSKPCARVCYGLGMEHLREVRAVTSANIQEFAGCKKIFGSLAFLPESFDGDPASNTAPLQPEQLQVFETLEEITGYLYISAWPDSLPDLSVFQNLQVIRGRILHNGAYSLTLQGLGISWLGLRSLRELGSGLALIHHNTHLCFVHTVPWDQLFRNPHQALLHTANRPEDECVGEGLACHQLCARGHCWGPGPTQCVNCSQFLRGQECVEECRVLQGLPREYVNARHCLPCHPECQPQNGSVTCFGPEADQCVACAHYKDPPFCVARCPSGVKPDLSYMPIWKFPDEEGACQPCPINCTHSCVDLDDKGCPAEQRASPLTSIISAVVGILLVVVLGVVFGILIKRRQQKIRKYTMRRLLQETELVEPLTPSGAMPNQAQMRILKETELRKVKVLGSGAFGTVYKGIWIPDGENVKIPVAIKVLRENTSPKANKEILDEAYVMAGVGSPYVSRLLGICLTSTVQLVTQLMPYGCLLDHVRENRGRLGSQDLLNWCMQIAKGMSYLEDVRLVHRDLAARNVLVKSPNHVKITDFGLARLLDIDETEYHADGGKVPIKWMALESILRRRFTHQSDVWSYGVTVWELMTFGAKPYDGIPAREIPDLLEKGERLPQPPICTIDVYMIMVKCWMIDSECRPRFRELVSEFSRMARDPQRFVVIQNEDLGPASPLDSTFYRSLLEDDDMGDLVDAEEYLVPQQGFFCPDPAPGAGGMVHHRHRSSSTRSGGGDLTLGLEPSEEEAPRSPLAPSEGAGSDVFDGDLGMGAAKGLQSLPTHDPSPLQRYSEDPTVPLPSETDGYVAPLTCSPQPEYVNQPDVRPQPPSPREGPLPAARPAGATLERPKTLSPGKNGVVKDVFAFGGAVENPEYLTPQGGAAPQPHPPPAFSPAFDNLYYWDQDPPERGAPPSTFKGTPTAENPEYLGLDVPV

[9] = target: Proto-oncogene tyrosine-protein kinase Src (Homo sapiens, UniProt P12931); experiment: Inhibitory concentration against Src kinase
Sequence of Proto-oncogene tyrosine-protein kinase Src (P12931 2-536 limits assumed): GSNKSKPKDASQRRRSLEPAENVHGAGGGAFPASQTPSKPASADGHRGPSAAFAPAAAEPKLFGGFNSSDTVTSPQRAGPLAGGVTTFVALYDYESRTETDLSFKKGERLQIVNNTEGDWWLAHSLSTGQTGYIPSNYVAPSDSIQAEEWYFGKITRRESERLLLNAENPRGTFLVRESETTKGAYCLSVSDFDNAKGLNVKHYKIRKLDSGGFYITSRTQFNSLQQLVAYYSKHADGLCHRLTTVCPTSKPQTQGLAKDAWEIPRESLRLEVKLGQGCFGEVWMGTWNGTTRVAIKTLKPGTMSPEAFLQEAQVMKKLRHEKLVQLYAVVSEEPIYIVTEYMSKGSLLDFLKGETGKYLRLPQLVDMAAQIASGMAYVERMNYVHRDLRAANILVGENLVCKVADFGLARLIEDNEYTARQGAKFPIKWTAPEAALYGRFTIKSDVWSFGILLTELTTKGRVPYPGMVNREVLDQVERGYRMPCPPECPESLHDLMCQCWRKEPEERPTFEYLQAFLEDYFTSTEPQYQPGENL

Mus musculus [10] = experiment: Plasma levels in nude mouse after administration at a single dose of 50 mg/kg ip after 4 hr; type: functional; conditions: route intraperitoneal
Mus musculus [11] = experiment: Plasma levels in nude mouse after administration at a single dose of 50 mg/kg ip after 8 hr; type: functional; conditions: route intraperitoneal

SMILES | Activity (Mus musculus [1]) | Activity (Mus musculus [2]) | Activity (Mus musculus [3]) | Activity (Mus musculus [4]) | Growth inhibiton (Mus musculus [5]) | IC50 [6] | IC50 [7] | IC50 [8] | IC50 [9] | Activity (Mus musculus [10]) | Activity (Mus musculus [11])
COc1cc(Nc2c(C#N)cnc3cc4cc(OCCN5CCN(C)CC5)c(OC)cc4cc23)c(Cl)cc1Cl | 0.63 µg/mL | 0.7 µg/mL | 0.24 µg/mL | 1.3 µg/mL | 20% | – | – | – | – | – | –
COc1cc(Nc2c(C#N)cnc3cc4cc(OCCN5CCOCC5)c(OC)cc4cc23)c(Cl)cc1Cl | – | – | 0.02 µg/mL | 2.1 µg/mL | 25% | > 10000 nM | > 10000 nM | 2500 nM | 0.46 nM | 1.9 µg/mL | 0.3 µg/mL
